Measurements from patent US20080206311A1, “Sucrase Activity Inhibitor, Glucoamylase Activity Inhibitor and Food and Feed Containing the Same” (MITSUI SUGAR CO., LTD., priority 2005, published 2008).

Assays:
[1] = target: T1, sucrose-isomaltase complex (Rattus norvegicus, UniProt P23739); assay: Confirmation test: decomposability of the sucrose-isomaltase complex (crude enzyme) on dextrin; type: biochemical; conditions: 37° C., 20 min
T1 construct: tissue Sigma Corporation; host or cells: rat small intestine (acetone powder); papain treatment, 45-65% ammonium sulfate cut, dialysis, DEAE-Cellulose fraction with highest sucrase activity
T1 sequence (P23739 33-1841 limits assumed, one chain of several): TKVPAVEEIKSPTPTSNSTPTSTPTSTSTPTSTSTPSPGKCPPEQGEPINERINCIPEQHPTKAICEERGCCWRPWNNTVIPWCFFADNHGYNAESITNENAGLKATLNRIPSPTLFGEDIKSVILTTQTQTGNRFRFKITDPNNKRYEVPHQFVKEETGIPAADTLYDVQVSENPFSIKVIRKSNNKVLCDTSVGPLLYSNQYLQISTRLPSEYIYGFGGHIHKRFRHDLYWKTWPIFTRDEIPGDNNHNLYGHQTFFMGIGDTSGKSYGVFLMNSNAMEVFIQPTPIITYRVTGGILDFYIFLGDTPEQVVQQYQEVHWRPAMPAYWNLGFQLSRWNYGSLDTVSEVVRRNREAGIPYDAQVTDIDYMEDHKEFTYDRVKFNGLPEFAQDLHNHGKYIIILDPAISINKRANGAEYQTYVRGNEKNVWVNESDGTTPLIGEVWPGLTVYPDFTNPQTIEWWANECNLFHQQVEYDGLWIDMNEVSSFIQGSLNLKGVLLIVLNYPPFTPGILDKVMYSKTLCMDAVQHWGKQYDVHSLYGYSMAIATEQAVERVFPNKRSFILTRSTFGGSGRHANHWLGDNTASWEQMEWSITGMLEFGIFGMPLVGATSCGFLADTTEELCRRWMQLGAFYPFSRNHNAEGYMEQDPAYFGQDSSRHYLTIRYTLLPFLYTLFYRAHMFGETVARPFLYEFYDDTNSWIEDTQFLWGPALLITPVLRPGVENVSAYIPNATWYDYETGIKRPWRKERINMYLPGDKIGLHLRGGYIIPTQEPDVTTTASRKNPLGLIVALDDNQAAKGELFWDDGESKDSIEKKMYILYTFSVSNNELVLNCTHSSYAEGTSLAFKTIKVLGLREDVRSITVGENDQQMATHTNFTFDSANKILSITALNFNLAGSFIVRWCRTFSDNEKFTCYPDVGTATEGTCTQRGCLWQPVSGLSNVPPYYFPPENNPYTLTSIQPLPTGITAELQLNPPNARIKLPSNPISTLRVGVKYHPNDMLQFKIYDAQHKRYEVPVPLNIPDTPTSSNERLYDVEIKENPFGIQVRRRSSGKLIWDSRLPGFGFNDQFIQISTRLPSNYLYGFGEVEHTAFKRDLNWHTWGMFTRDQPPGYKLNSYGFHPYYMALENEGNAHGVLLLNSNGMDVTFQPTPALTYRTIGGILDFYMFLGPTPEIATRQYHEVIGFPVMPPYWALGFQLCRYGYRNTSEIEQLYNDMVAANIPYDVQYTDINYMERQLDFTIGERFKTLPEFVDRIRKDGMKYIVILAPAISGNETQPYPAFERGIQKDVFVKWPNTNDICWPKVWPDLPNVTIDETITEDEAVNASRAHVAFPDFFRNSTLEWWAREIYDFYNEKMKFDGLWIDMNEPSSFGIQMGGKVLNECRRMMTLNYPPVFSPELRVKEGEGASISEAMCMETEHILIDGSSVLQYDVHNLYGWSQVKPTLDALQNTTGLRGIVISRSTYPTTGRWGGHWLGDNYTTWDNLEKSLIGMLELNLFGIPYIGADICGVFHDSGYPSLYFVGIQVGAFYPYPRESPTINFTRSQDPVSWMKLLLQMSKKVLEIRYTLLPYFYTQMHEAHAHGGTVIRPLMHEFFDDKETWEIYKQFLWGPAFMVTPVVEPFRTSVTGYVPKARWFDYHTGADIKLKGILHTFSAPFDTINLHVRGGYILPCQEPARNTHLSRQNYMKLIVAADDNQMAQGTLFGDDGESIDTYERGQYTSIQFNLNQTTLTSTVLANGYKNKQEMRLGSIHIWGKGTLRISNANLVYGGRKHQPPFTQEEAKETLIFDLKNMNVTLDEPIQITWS
Protocol: Decomposability of the sucrose-isomaltase complex on dextrin was investigated in order to confirm that decomposition of starch in the following Examples 4, 6 and 7 and Test Example 5 was attained by glucoamylase, but not by sucrose or isomaltase.
A. Extraction of a crude enzyme, sucrose-isomaltase complex Twenty grams of rat small-intestinal acetone powder (ex Sigma Corporation) were added to 180 ml of 50 mM potassium phosphate buffer (pH 7.0) and extracted for 4 hours while slowly stirred at room temperature, to which 6.5 ml of a cysteine solution (100 mg/10 ml) and 1.5 ml of a papain solution (MP Biomedicals, LLC 80 mg/2 ml) were subsequently added and the mixture was incubated at 37° C. for 1 hour to conduct a papain treatment. Then, a supernatant was recovered by centrifugal separation (8000 rpm×15 min.) and further filtered by aspiration using Toyo Filter Paper No. 2 to obtain 164 ml of a crude enzyme solution. Protein was precipitated at an ammonium sulfate concentration of 45% from the crude enzyme solution and then a supernatant was recovered by centrifugal separation (8000 rpm×15 min.). Next, ammonium sulfate was added to the supernatant up to a concentration of 65% to precipitate protein, and then the precipitate was recovered by centrifugal separation (8000 rpm×15 min.). […] The enzymatic activity was measured for each fraction and the fraction with the highest activity of a sucrose-isomaltase complex was recovered to obtain a 12 ml crude enzyme solution. The sucrose-isomaltase complex activity was determined by measuring a decomposition activity for sucrose in each fraction. […] A glucose concentration was determined using the F-kit Glucose (ex Roche) described in item D below. […]
A glucose concentration in each sample after the reaction was measured using the F-kit Glucose (ex Roche Corporation). A liberated glucose concentration (g/l) was calculated by subtracting a blank value (0.1 M phosphate buffer alone (pH 6.8)) and a concentration of glucose originally contained in the test sample (dextrin and sucrose) from the determined glucose concentration.

glucoamylase = assay: Glucoamylase activity inhibition with rat small-intestinal enzyme liquid, substrate soluble starch; type: biochemical; conditions: 5% soluble starch + 5% test sample
Protocol: (§1) Two grams of rat small-intestinal acetone powder (ex Sigma Corporation) were dissolved in 20 ml of 0.1 M phosphate buffer (pH 6.8), left standing one day at 5° C., and subsequently subjected to centrifugal separation (8000 rpm×15 min.). The supernatant was filtered through a 0.8 μm membrane filter to obtain a small-intestinal enzyme liquid. This liquid contained a mixture of enzymes present in small intestine, such as sucrose, glucoamylase, maltase, and isomaltase.
(§2) Each 0.25 ml of the small-intestinal enzyme liquid was added to each 5 ml of Solutions 1 through 5 and placed in a water bath at 37° C. to allow them to react for 60 min. while shaken at 60 strokes/min. After the reaction, they were heated in a boiling water bath for 3 min. for inactivation of the enzymes.
(§3) The glucose concentration in each solution after the reaction was measured using the F-kit Glucose (ex Roche). A liberated glucose concentration (g/l) was calculated by subtracting the blank value (0.1 M phosphate buffer alone) and the concentration of glucose originally contained in the test sample from each glucose concentration measured.
(§4) Next, each of the liberated glucose concentration was input in the following equation to obtain decomposition inhibition ratio for maltase and sucrose. In the present tests, the substrates and the inhibitors were decomposed by enzymes present in the small-intestinal enzyme liquid. However, the enzymes decomposing the substrates are different from the enzymes decomposing the inhibitors. The decomposition inhibition ratio was determined as a measure for the inhibitory effect. When the inhibitor was added, the glucose concentration was lower than that seen when the substrate alone was reacted. A higher decomposition inhibition ratio means a stronger inhibitory effect.
(§5) Decomposition inhibition ratio,%={(A+B)−(AB)}+(A+B)×100 [Equation 1]
(§6) wherein (A+B) indicates a sum of a liberated glucose concentration in the control solution containing the test sample alone after the reaction (A) and a liberated glucose concentration in the control solution containing the substrate alone after the reaction (B); and (AB) indicates a liberated glucose concentration in the test solution containing the test sample (A) and the substrate (B), after the reaction.
The procedures in Example 1 were repeated with the exception that palatinose and palatinit were used as a test sample and soluble starch was used as a substrate. The test samples and the substrate were dissolved in 0.1 M phosphate buffer (pH 6.8) to attain the concentration shown in Table 6 to thereby prepare two test solutions. Besides, each of the test samples or the substrate was dissolved in 0.1 M phosphate buffer (pH 6.8) to attain the concentration shown in Table 6 to thereby prepare control solutions. Each 5 ml of the aforementioned test solutions and the control solutions was subjected to the enzymatic reaction according to the same procedures as in Example 1 and the liberated glucose concentration and the decomposition inhibition ratio were measured.
The procedures in Example 1 were repeated with the exception that trehalulose was used as a test sample and soluble starch was used as a substrate. The test sample and the substrate were dissolved in 0.1 M phosphate buffer (pH 6.8) to attain the concentration shown in Table 9 to thereby prepare a test solution. Besides, the test sample or the substrate was dissolved in 0.1 M phosphate buffer (pH 6.8) to attain the concentration shown in Table 9 to thereby prepare control solutions. Each 5 ml of the aforementioned test solution and the control solutions was subjected to the enzymatic reaction according to the same procedures as in Example 1 and the liberated glucose concentration and the decomposition inhibition ratio were measured.
The procedures in Example 1 were repeated with the exception that trehalose was used as a test sample and soluble starch was used as a substrate. […]

[2] = target: (Homo sapiens, UniProt P14410); conditions: 5-75 mM sucrose as substrate, 5 mM trehalulose as inhibitor; cited from earlier work
[3] = tested on: small-intestinal enzyme liquid; assay: Decomposition of a saccharide alone (control solution) by small-intestinal enzyme liquid; type: biochemical, rat
Protocol: (§7) Palatinose (trade name: Palatinose IC, ex Shin Mitsui Sugar Co., Ltd.) (test sample) was used as a sample for investigating each enzyme activity inhibitory effect. Maltose and sucrose were used as substrates for maltase and sucrose, respectively. The test sample and the substrates were dissolved in 0.1 M phosphate buffer (pH 6.8) at the concentration shown in Table 1 below to prepare test solutions (Solutions 4 and 5). Also, the test sample or the substrates were dissolved in 0.1 M phosphate buffer (pH 6.8), respectively to at the concentration shown in Table 1 below to prepare control solutions (Solution 1 for the test sample and Solutions 2 and 3 for the substrates).
as §1, §2, §3
The fructose concentration was measured using the F-kit Fructose (ex Roche). The liberated fructose concentration, g/l, was obtained by subtracting the blank value (0.1 M phosphate buffer alone) from the resultant fructose concentration.
The procedures in Example 1 were repeated with the exception that palatinit, palatinose or isomaltose was used as a test sample and lactose was used as a substrate. The test samples and the substrate were dissolved in 0.1 M phosphate buffer (pH 6.8) to attain the concentration shown in Table 5 to thereby prepare three test solutions. Besides, each of the test samples or the substrate was dissolved in 0.1 M phosphate buffer (pH 6.8) to attain the concentration shown in Table 5 to thereby prepare control solutions. Each 5 ml of the aforementioned test solutions and the control solutions was subjected to the enzymatic reaction according to the same procedures as in Example 1. The glucose concentration, the fructose concentration and the galactose concentration were measured. The galactose concentration was measured using F-kit Galactose (ex Roche). The liberated galactose concentration, g/l, was calculated by subtracting the blank value (0.1 M phosphate buffer alone) from the measured galactose concentration.

sucrase = target: T2, sucrase (Rattus norvegicus, UniProt P23739); assay: Sucrase activity inhibition with rat small-intestinal enzyme liquid, substrate sucrose; type: biochemical; conditions: 5% sucrose + 5% test sample
T2 construct: This liquid contained a mixture of enzymes present in small intestine, such as sucrose, glucoamylase, maltase, and isomaltase; tissue Sigma Corporation; host or cells: rat small intestine (acetone powder), buffer extract, unpurified
T2 sequence (P23739 whole entry): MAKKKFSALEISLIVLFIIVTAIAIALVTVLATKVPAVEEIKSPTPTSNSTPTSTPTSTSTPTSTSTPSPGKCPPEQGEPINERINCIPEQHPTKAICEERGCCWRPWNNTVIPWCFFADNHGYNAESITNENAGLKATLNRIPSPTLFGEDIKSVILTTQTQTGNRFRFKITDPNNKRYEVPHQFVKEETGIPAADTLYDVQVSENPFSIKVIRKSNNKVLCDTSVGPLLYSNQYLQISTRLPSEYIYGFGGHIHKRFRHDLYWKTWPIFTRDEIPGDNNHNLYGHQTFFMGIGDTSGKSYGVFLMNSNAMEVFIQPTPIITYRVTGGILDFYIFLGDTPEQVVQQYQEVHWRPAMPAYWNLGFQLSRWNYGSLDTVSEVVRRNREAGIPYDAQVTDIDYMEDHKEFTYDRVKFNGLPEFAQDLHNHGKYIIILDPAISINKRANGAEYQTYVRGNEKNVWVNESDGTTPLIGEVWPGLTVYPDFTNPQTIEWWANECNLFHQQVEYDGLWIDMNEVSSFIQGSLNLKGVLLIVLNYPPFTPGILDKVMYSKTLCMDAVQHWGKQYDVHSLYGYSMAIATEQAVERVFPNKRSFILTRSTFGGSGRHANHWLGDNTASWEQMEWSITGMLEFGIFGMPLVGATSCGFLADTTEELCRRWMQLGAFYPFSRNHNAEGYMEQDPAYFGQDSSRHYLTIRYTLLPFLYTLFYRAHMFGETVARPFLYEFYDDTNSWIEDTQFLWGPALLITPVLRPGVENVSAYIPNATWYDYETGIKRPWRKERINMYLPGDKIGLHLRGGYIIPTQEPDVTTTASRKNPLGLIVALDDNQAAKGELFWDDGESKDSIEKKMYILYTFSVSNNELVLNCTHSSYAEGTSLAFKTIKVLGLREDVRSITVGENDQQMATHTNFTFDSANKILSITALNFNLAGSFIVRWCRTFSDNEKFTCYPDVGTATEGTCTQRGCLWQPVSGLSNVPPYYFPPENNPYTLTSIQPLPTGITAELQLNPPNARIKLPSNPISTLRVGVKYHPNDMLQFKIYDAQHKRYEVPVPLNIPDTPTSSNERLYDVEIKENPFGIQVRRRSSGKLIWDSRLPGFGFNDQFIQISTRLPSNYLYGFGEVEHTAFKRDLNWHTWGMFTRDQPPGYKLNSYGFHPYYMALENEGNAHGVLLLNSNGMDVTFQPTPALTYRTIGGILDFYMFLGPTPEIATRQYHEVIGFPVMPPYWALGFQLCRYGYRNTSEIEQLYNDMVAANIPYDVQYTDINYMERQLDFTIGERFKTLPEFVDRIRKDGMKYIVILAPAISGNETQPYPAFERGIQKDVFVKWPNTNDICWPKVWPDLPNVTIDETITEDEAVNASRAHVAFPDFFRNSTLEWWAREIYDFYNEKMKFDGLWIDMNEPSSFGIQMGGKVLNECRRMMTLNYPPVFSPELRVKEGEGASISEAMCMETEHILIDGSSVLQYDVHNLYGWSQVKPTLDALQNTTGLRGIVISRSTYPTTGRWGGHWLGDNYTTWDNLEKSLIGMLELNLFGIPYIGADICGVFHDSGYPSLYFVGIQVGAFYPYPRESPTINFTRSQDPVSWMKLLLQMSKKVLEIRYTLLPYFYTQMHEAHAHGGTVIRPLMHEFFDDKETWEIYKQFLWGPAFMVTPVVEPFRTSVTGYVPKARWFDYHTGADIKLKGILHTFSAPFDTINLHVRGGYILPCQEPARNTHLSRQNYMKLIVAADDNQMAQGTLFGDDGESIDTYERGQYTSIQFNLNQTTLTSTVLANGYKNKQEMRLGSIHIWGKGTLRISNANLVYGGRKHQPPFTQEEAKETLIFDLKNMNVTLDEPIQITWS
Protocol: as §7, §1, §2, §3, §4, §5, §6
The procedures in Example 1 were repeated with the exception that the test solutions contained 5% of sucrose and 0.5%, 1.0%, 3.0% or 5.0% of palatinose to examine intensity of the sucrose activity inhibition. A control solution contained 5% of sucrose in 0.1 M phosphate buffer (pH 6.8).
The procedures in Example 1 were repeated with the exception that palatinit and palatinose were used as test samples and sucrose was used as a substrate. The test samples and the substrate were dissolved in 0.1 M phosphate buffer (pH 6.8) to attain the concentration shown in Table 3 to thereby prepare two test solutions. Besides, each one of the test samples or the substrate was dissolved in 0.1 M phosphate buffer (pH 6.8) to attain the concentration shown in Table 3 to thereby prepare control solutions. Each 5 ml of the aforementioned test solutions or the control solutions was subjected to the enzymatic reaction according to the same procedures as in Example 1. The glucose concentration and the fructose concentration were measured. […]

[4] = crude enzyme liquid 0.125 ml, dextrin 2% (Sample 1) or sucrose 26.6 mM (Sample 3)
[5] = 5% saccharide alone, Example 5 / Test Example 4
[6] = 5% saccharide alone, Example 3 / Test Examples 2, 3

Compound | Mean amount of produced glucose [1, 4] | Mean amount of produced glucose ([1]; crude enzyme liquid 0.25 ml, dextrin 2% (Sample 2)) | Glucoamylase activity inhibitory effect (in words) (glucoamylase) | Decomposition inhibition ratio, %, against glucoamylase (glucoamylase; Example 6 / Test Example 5) | Liberated glucose concentration (glucoamylase; Example 6 / Test Example 5) | Inhibitory effect on the sucrase activity (reported) [2] | Liberated glucose concentration [3, 5] | Liberated glucose concentration ([3]; 5% saccharide alone, Example 6 / Test Example 5) | Sucrase activity inhibitory effect (in words) (sucrase) | Decomposition inhibition ratio, %, against sucrase (sucrase; Example 5 / Test Example 4) | Liberated glucose concentration (sucrase; Example 5 / Test Example 4) | Liberated glucose concentration ([3]; 5% saccharide alone, 37° C., 60 min, pH 6.8, Example 1 / Test Example 1) | Liberated fructose concentration [3, 6] | Liberated glucose concentration [3, 6] | Total concentration of liberated monosaccharides (glucose + fructose) ([3]; control solution with sucrose only, 5%)
dextrin | 0.057 g/L | 0.088 g/L | – | – | – | – | – | – | – | – | – | – | – | – | –
trehalulose | – | – | has a glucoamylase activity inhibitory effect | 28% | 2.028 g/L | no inhibitory effect | 0.558 g/L | 0.411 g/L | has the sucrose activity inhibitory effect | 36% | 1.403 g/L | – | – | – | –
OC[C@H]1O[C@@](CO)(O[C@H]2O[C@H](CO)[C@@H](O)[C@H](O)[C@H]2O)[C@@H](O)[C@@H]1O [sucrose] | 0.474 g/L | – | – | – | – | – | 1.628 g/L | – | – | – | – | 0.959 ± 0.022 g/L | 1.09 g/L | 1.01 g/L | 2.10 g/L
